Several values for one entry are separate records, joined by “and”; a condition that tells them apart may be missing. Equal entries are not always repeated.
Experiments:
Assay in all cases: Disk assay, zone of inhibition
Type in all cases: cell-based
[1] = test system: Escherichia coli, ATCC #8739; conditions: 1% solution in saline on disk, Plates 1-3, "No Zone" = no antibacterial activity observed
Protocol: (§1) The antibiotic activity of a 1% memantine-lactose adduct solution in saline was assayed using a disk assay against three USP bacteria cultures: Staphylococcus aureus, Pseudomonas aeruginosa and Escherichia coli. A negative control, 0.9% saline disk, and a positive control, 1% gentamicin solution in saline, were included. Antibacterial activity was evaluated by measuring (in mm) the size of any clear zone of no growth (i.e., Zone of Inhibition) around each sample. A “No Zone” is reported when no antibacterial activity is observed. […] These experiments may be predictive of biological effects in humans or other mammals and/or may serve as models for use of the present invention in humans or other mammals for the treatment of infections caused by Gram positive or Gram negative bacteria. See, e.g., Kustimur et al., Chinese Medical Journal, 116(4):633-636 (2003).

[2] = test system: Pseudomonas aeruginosa, ATCC #9027; conditions: 1% solution in saline on disk, Plates 1-3, "No Zone" = no antibacterial activity observed
Protocol: as §1

[3] = test system: Staphylococcus aureus, ATCC #6538
Protocol: as §1

CC12CC3CC(C)(C1)CC(NCC(=O)[C@@H](O)C(O[C@@H]1O[C@H](CO)[C@@H](O)[C@H](O)[C@H]1O)[C@H](O)CO)(C3)C2 (stereo partly drawn) [Memantine-lactose adduct]
Zone of Inhibition [1]: No Zone | Zone of Inhibition [2]: No Zone | antibacterial activity (result in words) ([3]; Staphylococcus aureus, 1% solution in saline, disk assay): found to have antibacterial activity

gentamicin
Zone of Inhibition [1]: 15.5 mm and 16.8 mm | Zone of Inhibition [2]: 11.2 mm and 10.9 mm and 9.9 mm | Zone of Inhibition ([3]; Staphylococcus aureus ATCC #6538, 1% solution in saline on disk, Plates 1-3, "No Zone" = no antibacterial activity observed): 19.3 mm and 19.1 mm and 15.8 mm
